Assay: xn = mol fraction of the nth substance listed

CCCNCCC + CCCCCCCCCCO
viscosity [mPa·s], 101.33 kPa
Details	x1 = 0.1006	x1 = 0.1963	x1 = 0.2905	x1 = 0.3847	x1 = 0.5117	x1 = 0.618	x1 = 0.7197	x1 = 0.8159	x1 = 0.895
303.15 K	7.53	6.262	5.075	3.99	2.748	1.943	1.364	0.9795	0.7427
313.15 K	5.817	4.775	3.828	2.993	2.07	1.486	1.076	0.7925	0.6095

CCCNCCC + CCCCCCCCO
viscosity [mPa·s], 101.33 kPa
Details	x1 = 0.0971	x1 = 0.1988	x1 = 0.2871	x1 = 0.3825	x1 = 0.4806	x1 = 0.5852	x1 = 0.6925	x1 = 0.7882	x1 = 0.8977
303.15 K	5.165	4.21	3.462	2.752	2.135	1.61	1.202	0.9319	0.6909
313.15 K	3.773	3.107	2.571	2.053	1.6	1.223	0.9264	0.7294	0.5547

CC1CCCCC1 + CCCCCCCO
Details	viscosity [mPa·s]
298.15 K, 101 kPa, x1 = 0.111	4.608
298.15 K, 101 kPa, x1 = 0.2237	3.546
298.15 K, 101 kPa, x1 = 0.389	2.371
298.15 K, 101 kPa, x1 = 0.6878	1.192
298.15 K, 101 kPa, x1 = 0.8281	0.89
298.15 K, 101 kPa, x1 = 0.9181	0.757
303.15 K, 101.33 kPa, x2 = 0.1208	0.7838
303.15 K, 101.33 kPa, x2 = 0.211	0.9181
303.15 K, 101.33 kPa, x2 = 0.3517	1.174
303.15 K, 101.33 kPa, x2 = 0.4355	1.364
303.15 K, 101.33 kPa, x2 = 0.5214	1.599
303.15 K, 101.33 kPa, x2 = 0.608	1.899
303.15 K, 101.33 kPa, x2 = 0.718	2.394
303.15 K, 101.33 kPa, x2 = 0.7991	2.87
303.15 K, 101.33 kPa, x2 = 0.8894	3.56

CCCNCCC + CCCCCCCO
viscosity [mPa·s], 101.33 kPa
Details	x1 = 0.0952	x1 = 0.1932	x1 = 0.2891	x1 = 0.3853	x1 = 0.5194	x1 = 0.6089	x1 = 0.717	x1 = 0.8156	x1 = 0.9054
303.15 K	4.145	3.485	2.867	2.311	1.672	1.333	1.02	0.809	0.6553
313.15 K	3.063	2.556	2.111	1.724	1.283	1.045	0.8136	0.6509	0.5273

CC1CCCCC1 + CCCCCCO
303.15 K, 101.33 kPa
Details	viscosity [mPa·s]
x1 = 0.1015	3.051
x1 = 0.2596	2.193
x1 = 0.4197	1.536
x1 = 0.582	1.11
x1 = 0.7447	0.852
x1 = 0.8989	0.693
x2 = 0.1112	0.7521
x2 = 0.1986	0.8469
x2 = 0.3135	1.009
x2 = 0.4018	1.148
x2 = 0.4981	1.351
x2 = 0.5978	1.595
x2 = 0.7018	1.908
x2 = 0.8123	2.408
x2 = 0.8923	2.874

CCOC(=O)[C@@H](O)[C@H](O)C(=O)OCC + CCCCCCO
viscosity [mPa·s], 101 kPa
Details	x1 = 0.1001	x1 = 0.2	x1 = 0.3	x1 = 0.4	x1 = 0.5	x1 = 0.5998	x1 = 0.7001	x1 = 0.8	x1 = 0.8995
293.15 K	6.18	7.861	10.57	14.54	20.8	30.68	43.54	72.93	122.9
298.15 K	5.252	6.543	8.559	11.55	16.09	22.97	31.66	50.5	81.01
303.15 K	4.449	5.484	7.046	9.307	12.59	17.51	23.57	36.18	55.71
308.15 K	3.803	4.618	5.836	7.569	10.04	13.64	18	26.73	39.73
313.15 K	3.251	3.893	4.85	6.204	8.087	10.78	13.99	20.22	29.19
318.15 K	2.838	3.369	4.146	5.219	6.697	8.77	11.19	15.77	22.15
323.15 K	2.506	2.946	3.581	4.451	5.632	7.262	9.138	12.59	17.3

Source: the CheMixHub viscosity set
